For the assay, the target named is T1, 5HTR2B (Homo sapiens, UniProt P41595).
T1 construct: host or cells: human Maverick/293 cells
T1 sequence (P41595 whole entry): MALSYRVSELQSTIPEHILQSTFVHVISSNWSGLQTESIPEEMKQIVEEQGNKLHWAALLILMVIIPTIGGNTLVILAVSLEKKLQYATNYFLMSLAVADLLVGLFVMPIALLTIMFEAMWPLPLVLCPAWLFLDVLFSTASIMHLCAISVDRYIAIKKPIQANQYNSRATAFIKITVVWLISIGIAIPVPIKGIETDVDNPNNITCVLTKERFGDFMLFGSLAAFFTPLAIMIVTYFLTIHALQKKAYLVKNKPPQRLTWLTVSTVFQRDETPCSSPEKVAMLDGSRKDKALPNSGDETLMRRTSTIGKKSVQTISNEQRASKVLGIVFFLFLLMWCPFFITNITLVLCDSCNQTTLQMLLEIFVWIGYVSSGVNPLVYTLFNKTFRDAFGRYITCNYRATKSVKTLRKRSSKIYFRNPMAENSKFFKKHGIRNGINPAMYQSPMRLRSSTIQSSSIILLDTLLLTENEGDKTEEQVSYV
The assay is described as follows: 5HTR2B antagonist activity, calcium mobilization assay in human Maverick/293 cells (serotonin as agonist). Format: cell-based. Conditions: intracellular calcium, emission 525 nm, read-out: Ca assay IC50. On the procedure:
The 5HTR2B antagonist activity was measured using human Maverick/293 cells in a calcium mobilization assay. The measurement starting with plating human Maverick/293 cells (log phase) onto 96-well black and incubate at 37° C. overnight, Followed by starving cells for 2 h by changing complete medium to DMEM without FBS, removing the medium from the 96-well plate. Loading staining calcium buffer into each well and incubated the plate at 37° C. for 50 min. After removal of staining calcium buffer, diluted antagonist were added into the well, incubate 15 to 30 minutes. Dispense serotonin as the 5HTR2B agonists into each well. Intracellular calcium concentration is recorded for 80 seconds by monitoring an emission at a wavelength of 525 nm with an excitation wavelength of 485 nm. Inhibition efficiency of the cell line was determined following the equation: % Inhibition=100%−(D−B)/(S−B)*100%. (S: The peak value in the presence of agonist serotonin; D: The peak value in the presence of different dilution compound or serotonin; B: The peak value in the presence of calcium HBSS buffer only). […] A dose response curve was fitted using nonlinear regression model with a sigmoidal dose response. The IC50 was automatically produced by GraphPad Prism 5.0.
As for `COc1ccc(S(=O)(=O)NC2CC2)cc1C(=O)Nc1ccc(F)c(C)n1` [Compound 21, 5-(N-Cyclopropylsulfamoyl)-N-(5-fluoro-6-methylpyridin-2-yl)-2-methoxy benzamide], the IC50 (usually the concentration that gives 50% inhibition) was found to be 1.6 nM.

In the case of `COc1ccc(S(N)(=O)=O)cc1C(=O)Nc1ccc(F)c(C)n1` [Compound 22], the IC50 amounted to 610 nM.

In the case of `CNS(=O)(=O)c1ccc(OC)c(C(=O)Nc2ccc(F)c(C)n2)c1` [Compound 24], the half-maximal inhibitory concentration (IC50) was found to be 47 nM.

Consider `COc1ccc(S(=O)(=O)NC(C)C)cc1C(=O)Nc1ccc(F)c(C)n1` [Compound 25, N-(5-Fluoro-6-methylpyridin-2-yl)-5-(N-isopropylsulfamoyl)-2-methoxy benzamide], for which the 50% inhibitory concentration (IC50) amounted to 1.4 nM.

Take `CCNS(=O)(=O)c1ccc(OC)c(C(=O)Nc2ccc(F)c(C)n2)c1` [Compound 26, 5-(N-Ethylsulfamoyl)-N-(5-fluoro-6-methylpyridin-2-yl)-2-methoxybenzamide]: the 50% inhibitory concentration (IC50) stood at 1.3 nM.

As to `COc1ccc(S(=O)(=O)N[C@H]2CC[C@@H](O)CC2)cc1C(=O)Nc1ccc(F)c(C)n1` [Compound 27, N-(5-Fluoro-6-methylpyridin-2-yl)-5-(N-((cis)-4-hydroxycyclohexyl)sulfamoyl)-2-methoxybenzamide], the IC50 amounted to 1.1 nM.

In the case of `COc1ccc(S(=O)(=O)N2CCCC2)cc1C(=O)Nc1ccc(F)c(C)n1` [Compound 30, N-(5-Fluoro-6-methylpyridin-2-yl)-2-methoxy-5-(pyrrolidin-1-ylsulfonyl) benzamide], the IC50 is 24 nM.

Turning to `COc1ccc(S(=O)(=O)N[C@H]2C[C@@](C)(O)C2)cc1C(=O)Nc1ccc(F)c(C)n1` [Compound 31, N-(5-fluoro-6-methylpyridin-2-yl)-5-(N-((cis)-3-hydroxy-3-methylcyclobutyl)sulfamoyl)-2-methoxybenzamide], the IC50 was 55 nM.

With `COc1ccc(S(=O)(=O)N[C@@H](C)C(N)=O)cc1C(=O)Nc1ccc(F)c(C(F)F)c1` [Compound 34a, (S)-5-(N-(1-Amino-1-oxopropan-2-yl)sulfamoyl)-N-(3-(difluoromethyl)-4-fluorophenyl)-2-methoxybenzamide], the IC50 turned out to be 1.4 nM.

With `COc1ccc(S(=O)(=O)N[C@H](C)C(N)=O)cc1C(=O)Nc1ccc(F)c(C(F)F)c1` [Compound 34b, (R)-5-(N-(1-Amino-1-oxopropan-2-yl)sulfamoyl)-N-(3-(difluoromethyl)-4-fluorophenyl)-2-methoxybenzamide], the IC50 turned out to be 167 nM.

Take `COc1ccc(S(=O)(=O)N[C@@H](C)CO)cc1C(=O)Nc1ccc(F)c(C(F)F)c1` [Compound 35a, (S)—N-(3-(Difluoromethyl)-4-fluorophenyl)-5-(N-(1-hydroxypropan-2-yl)sulfamoyl)-2-methoxybenzamide]: the half-inhibitory concentration (IC50) was found to be 0.7 nM.

With `COc1ccc(S(=O)(=O)N[C@H](C)CO)cc1C(=O)Nc1ccc(F)c(C(F)F)c1` [Compound 35b, (R)—N-(3-(Difluoromethyl)-4-fluorophenyl)-5-(N-(1-hydroxypropan-2-yl)sulfamoyl)-2-methoxybenzamide], the IC50 was 4.3 nM.

As to `COc1ccc(S(=O)(=O)NC2(C)COC2)cc1C(=O)Nc1ccc(F)c(C(F)F)c1` [Compound 36, N-(3-(Difluoromethyl)-4-fluorophenyl)-2-methoxy-5-(N-(3-methyloxetan-3-yl)sulfamoyl)benzamide], the half-maximal inhibitory concentration (IC50) came to 2.7 nM.

On to `COc1ccc(S(=O)(=O)N[C@H]2CCCOC2)cc1C(=O)Nc1ccc(F)c(C(F)F)c1` [Compound 37, (S)—N-(3-(Difluoromethyl)-4-fluorophenyl)-2-methoxy-5-(N-(tetrahydro-2H-pyran-3-yl)sulfamoyl)benzamide], for which the concentration for half-maximal inhibition (IC50) was found to be 0.8 nM.

For the compound `COc1ccc(S(=O)(=O)N[C@H]2CC[C@@H](O)CC2)cc1C(=O)Nc1ccc(F)c(C(F)F)c1` [Compound 38, N-(3-(Difluoromethyl)-4-fluorophenyl)-5-(N-((cis)-4-hydroxycyclohexyl)sulfamoyl)-2-methoxybenzamide], the concentration for half-maximal inhibition (IC50) is 0.6 nM.

Take `COc1ccc(S(=O)(=O)NC2COC2)cc1C(=O)Nc1ccc(F)c(C(F)F)c1` [Compound 39, N-(3-(Difluoromethyl)-4-fluorophenyl)-2-methoxy-5-(N-(oxetan-3-yl)sulfamoyl)benzamide]: the half-maximal inhibitory concentration (IC50) worked out at 3.6 nM.

Take `COc1ccc(S(=O)(=O)N[C@H]2CCCOC2)cc1C(=O)Nc1ccc(F)cc1` [Compound 41, (S)—N-(4-Fluorophenyl)-2-methoxy-5-(N-(tetrahydro-2H-pyran-3-yl)sulfamoyl) benzamide]: the IC50 was 0.7 nM.

With `COc1ccc(S(=O)(=O)NC2(C)COC2)cc1C(=O)Nc1ccc(F)cc1` [Compound 42, N-(4-Fluorophenyl)-2-methoxy-5-(N-(3-methyloxetan-3-yl)sulfamoyl)benzamide], the IC50 amounted to 2.2 nM.

In the case of `COc1ccc(S(=O)(=O)NC2COC2)cc1C(=O)Nc1ccc(F)cc1` [Compound 43, N-(4-Fluorophenyl)-2-methoxy-5-(N-(oxetan-3-yl)sulfamoyl)benzamide], the IC50 was 7.2 nM.

Consider `COc1ccc(S(=O)(=O)NC2CC[C@H](O)C2)cc1C(=O)Nc1ccc(F)cc1` (stereo partly shown) [Compound 45b], for which the concentration for half-maximal inhibition (IC50) turned out to be 1.9 nM.

As to `COc1ccc(S(=O)(=O)N[C@H](C)C(N)=O)cc1C(=O)Nc1ccc(F)cc1` [Compound 46a, (R)-5-(N-(1-Amino-1-oxopropan-2-yl)sulfamoyl)-N-(4-fluorophenyl)-2-methoxybenzamide], the IC50 was 1.5 nM.

Regarding `COc1ccc(S(=O)(=O)N[C@@H](C)C(N)=O)cc1C(=O)Nc1ccc(F)cc1` [Compound 46b, (S)-5-(N-(1-Amino-1-oxopropan-2-yl)sulfamoyl)-N-(4-fluorophenyl)-2-methoxybenzamide], the IC50 is 1.8 nM.

With `COc1ccc(S(=O)(=O)NC2CCC2)cc1C(=O)Nc1ccc(F)cc1` [Compound 47, 5-(N-Cyclobutylsulfamoyl)-N-(4-fluorophenyl)-2-methoxybenzamide], the 50% inhibitory concentration (IC50) stood at 0.5 nM.

On to `COc1ccc(S(=O)(=O)NC2CC2)cc1C(=O)Nc1ccc(F)cc1` [Compound 48, 5-(N-Cyclopropylsulfamoyl)-N-(4-fluorophenyl)-2-methoxybenzamide], for which the IC50 was 2.7 nM.

Turning to `COc1ccc(S(=O)(=O)N[C@@H](C)CO)cc1C(=O)Nc1ccc(F)cc1` [Compound 49a, (S)—N-(4-Fluorophenyl)-5-(N-(1-hydroxypropan-2-yl)sulfamoyl)-2-methoxybenzamide], the IC50 turned out to be 3.4 nM.

With `COc1ccc(S(=O)(=O)N[C@H](C)CO)cc1C(=O)Nc1ccc(F)cc1` [Compound 49b, (R)—N-(4-Fluorophenyl)-5-(N-(1-hydroxypropan-2-yl)sulfamoyl)-2-methoxybenzamide], the IC50 is 9 nM.

Turning to `COc1ccc(S(=O)(=O)NC2(C(F)(F)F)CC2)cc1C(=O)Nc1ccc(F)cc1` [Compound 50, N-(4-Fluorophenyl)-2-methoxy-5-(N-(1-(trifluoromethyl)cyclopropyl)sulfamoyl)benzamide], the IC50 turned out to be 7.6 nM.

Regarding `COc1ccc(S(=O)(=O)NC2CCCC2)cc1C(=O)Nc1ccc(F)cc1` [Compound 51, 5-(N-Cyclopentylsulfamoyl)-N-(4-fluorophenyl)-2-methoxybenzamide], the 50% inhibitory concentration (IC50) was 1 nM.

As for `COc1ccc(S(=O)(=O)N[C@@H](C)CO)cc1C(=O)Nc1ccc(F)cc1` [Compound 52a, (S)—N-(4-fluorophenyl)-5-(N-(1-hydroxypropan-2-yl)sulfamoyl)-2-methoxybenzamide], the concentration for half-maximal inhibition (IC50) was determined as 50 nM.

In the case of `COc1ccc(S(=O)(=O)N[C@H](C)CO)cc1C(=O)Nc1ccc(F)cc1` [Compound 52b, (R)—N-(4-fluorophenyl)-5-(N-(1-hydroxypropan-2-yl)sulfamoyl)-2-methoxybenzamide], the IC50 is 4.5 nM.

`COc1ccc(S(=O)(=O)N[C@H]2CC[C@@H](O)CC2)cc1C(=O)Nc1ccc(F)cc1` [Compound 53, N-(4-Fluorophenyl)-5-(N-((cis)-4-hydroxycyclohexyl)sulfamoyl)-2-methoxybenzamide]: the 50% inhibitory concentration (IC50) came to 0.3 nM.

Turning to `COc1ccc(S(=O)(=O)N[C@@H](C)CO)cc1C(=O)Nc1ccccc1Cl` [Compound 55a, (S)—N-(2-Chlorophenyl)-5-(N-(1-hydroxypropan-2-yl)sulfamoyl)-2-methoxy benzamide], the IC50 came to 0.3 nM.

As for `COc1ccc(S(=O)(=O)N[C@H](C)CO)cc1C(=O)Nc1ccccc1Cl` [Compound 55b, (R)—N-(2-Chlorophenyl)-5-(N-(1-hydroxypropan-2-yl)sulfamoyl)-2-methoxy benzamide], the IC50 came out at 0.1 nM.

For `COc1ccc(S(=O)(=O)NC2CC[C@H](O)C2)cc1C(=O)Nc1ccccc1Cl` (stereo partly shown) [Compound 57a], the IC50 was 0.2 nM.

For the compound `COc1ccc(S(=O)(=O)NC2CC[C@@H](O)C2)cc1C(=O)Nc1ccccc1Cl` (stereo partly drawn) [Compound 57b, N-(2-Chlorophenyl)-5-(N-((cis)-3-hydroxycyclopentyl)sulfamoyl)-2-methoxy benzamide], the IC50 is 0.2 nM.

Take `COc1ccc(S(=O)(=O)NC2(C)COC2)cc1C(=O)Nc1ccccc1Cl` [Compound 58, N-(2-Chlorophenyl)-2-methoxy-5-(N-(3-methyloxetan-3-yl)sulfamoyl) benzamide]: the IC50 amounted to 0.2 nM.

Turning to `COc1ccc(S(=O)(=O)N[C@@H](C)C(N)=O)cc1C(=O)Nc1ccccc1Cl` [Compound 59a], the IC50 is 0.2 nM.

Source of the values: patent US10654837B2, “Sulphamoylaryl derivatives and use thereof as medicaments for the treatment of liver fibrosis” (Janssen Pharmaceutica NV, priority 2017, dated 2020).
